How the values were obtained:
[1] = method code RP-HPLC, from DOI: 10.1016/s0045-6535(96)00355-4

| Structure (SMILES) | logP | logP [1] |
| --- | --- | --- |
| CCc1cccc(CC)c1N(COC)C(=O)CCl | 2.95 |  |
| Clc1ccc(C(c2ccccc2Cl)C(Cl)(Cl)Cl)cc1 (centres undefined) | 5.53 |  |
| CCCCN(CC)C(=O)SCCC | 3.27 |  |
| CC(C)N(C(=O)CCl)c1ccccc1 |  | 2.36 |
| OC(c1ccc(Cl)cc1)(c1ccc(Cl)cc1)C(Cl)(Cl)Cl |  | 4.93 |
| CCNc1nc(NC(C)C)nc(OC)n1 |  | 2.29 |
| COP(=O)(OC)O/C(=C\Cl)c1cc(Cl)c(Cl)cc1Cl | 3.87 |  |
| CCNc1nc(NC(C)(C)C)nc(OC)n1 |  | 2.95 |
| Clc1ccc(C(c2ccccc2Cl)C(Cl)Cl)cc1 (centres undefined) | 5.34 |  |
| CCOP(=S)(OCC)SCSC(C)(C)C | 3.98 |  |
| CCSC(=O)N1CCCCCC1 | 2.49 |  |
| ClC(Cl)=C(c1ccc(Cl)cc1)c1ccccc1Cl | 5.45 |  |
| CCSC(=O)N(CC(C)C)CC(C)C | 3.45 |  |
| CCCSC(=O)N(CCC)CCC | 3.19 |  |
| CCNc1nc(N)nc(Cl)n1 |  | 1.07 |
| CCSC(=O)N(CC)C1CCCCC1 | 3.25 |  |
| CCC(CC)Nc1c([N+](=O)[O-])cc(C)c(C)c1[N+](=O)[O-] |  | 4.78 |
| CCOP(=S)(OCC)Oc1ccc2c(C)c(Cl)c(=O)oc2c1 | 4.01 |  |
| CCCN(CCC)C(=O)SCC | 2.77 |  |

From the SangsterLogP compilation
